pIC50: −log10 of the molar value.
Key:
TXNRD1 [1] = target: T1, TXNRD1 (Homo sapiens, UniProt Q16881); test: TXNRD1 activity assay, pure enzyme (Fig. 1A); assay type: biochemical
T1 construct: made in house
T1 sequence (Q16881 1-499 isoform Q16881-5): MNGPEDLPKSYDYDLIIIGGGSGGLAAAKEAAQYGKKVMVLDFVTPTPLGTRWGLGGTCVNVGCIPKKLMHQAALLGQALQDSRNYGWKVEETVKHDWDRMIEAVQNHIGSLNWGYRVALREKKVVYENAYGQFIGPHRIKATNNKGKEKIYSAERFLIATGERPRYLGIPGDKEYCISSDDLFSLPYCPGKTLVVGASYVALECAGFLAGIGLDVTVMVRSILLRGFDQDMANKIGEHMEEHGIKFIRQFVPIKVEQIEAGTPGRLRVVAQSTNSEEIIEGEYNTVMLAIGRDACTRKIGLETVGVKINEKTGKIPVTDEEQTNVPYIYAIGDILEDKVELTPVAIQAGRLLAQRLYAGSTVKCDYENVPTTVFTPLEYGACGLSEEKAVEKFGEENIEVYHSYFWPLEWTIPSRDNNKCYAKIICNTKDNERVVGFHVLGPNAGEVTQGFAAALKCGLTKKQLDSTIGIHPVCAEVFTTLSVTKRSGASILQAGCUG
Procedure: Recombinant human proteins—Recombinant human selenoprotein GPX and TXNRD isoenzymes as well as recombinant human GR were cloned, expressed, and purified as described previously [[26], [27], [28]].
TXNRD1 selenite and DTNB assays were run as previously described [[26], [27], [28]]. Dose-response curves and IC50s were generated using Excel and GraphPad Prism. Briefly, initial slopes of NADPH consumption were normalized to DMSO controls and IC50s were calculated using log(inhibitor) vs. response—Variable slope (four parameters).

[2] = set-up: method as in PMID 29444979; conditions: given at high doses to mice; cited from earlier work
TXNRD1 [3] = target: T1, TXNRD1; test: nano differential scanning fluorimetry, TXNRD1; assay type: binding; conditions: 100 μM compound
Procedure: Nano differential scanning fluorimetry—Real-time monitoring of fluorescence emission at 330 nm and 350 nm (excitation wavelength: 280 nm) and backscattering absorbance of GPX4 and TXNRD1 samples in the presence of compound was performed using a NanoTemper Prometheus NT.48 instrument. […] Standard capillaries were used, and temperature was increased from 25 to 95 °C with a ramp rate of 4.0 °C/min. Three biological replicates were carried out for each condition, and their means and standard deviations are depicted.

[4] = system: malondialdehyde (MDA) and Ptgs2 mRNA levels; set-up: method as in PMID 32732975; conditions: C57BL/6 mice; rescued with Fer-1; cited from earlier work
GPX4 [5] = system: GPX4; set-up: method as in PMID 34788728; conditions: cited from earlier work
A549 cells [6] = test: Cytotoxicity assay, A549 cells; assay type: cell-based, human
Procedure: Cell culture—H1975 and A549 cells were cultured in RPMI-1640 medium (HyClone) with Earle's salts supplemented and penicillin/streptomycin (100 μg/ml), while HT1080 cells were cultured in MEM medium for Fig. 2 experiments. For all other cellular experiments, A549 cells were cultured in DMEM 4.5 g/L glucose medium (Gibco), and H1975 cells in RPMI-1640 ATCC Modification (Gibco). Cell cultures were maintained at 37 °C in 5% CO2 in a medium containing 10% fetal bovine serum (FBS) (GE Healthcare, A15-102 for Fig. 2 experiments and Sigma, F7524 for all others). Experiments were performed with or without supplementation with 100 nM sodium selenite as described.
Cytotoxicity assays— Cells were seeded in a 96-well plate at the density of 3 × 10^3 per well and allowed to adhere overnight. After which, cells were treated with various concentrations of compound for the indicated times, whereupon cell viability was determined using Cell Quanti-Blue™ Cell Viability Assay Kits (Nordic Diagnostica, CQBL-10K). Briefly, QUANTI-Blue Reagent (10 μL) was added to each well, incubated at 37 °C in 5% CO2 for 3 h, and then the plates were measured at 540nm/600 nm (Ex/Em) using the Tecan Microplate Reader (Morrisville NC, USA).

TXNRD1 [7] = target: T2, TXNRD1 (Homo sapiens, UniProt Q16881); test: Cellular TXNRD1 assay with RX1 probe in A549 cells; assay type: cell-based; conditions: A549, 4 h incubation; RSL3 and ML162 at 1 μM or higher
T2 construct: RX1 probe that specifically reports upon TXNRD1 enzymatic activity in live cells; endogenous in cells; host or cells: A549
T2 sequence (Q16881 151-649 limits assumed): T1 sequence (Q16881 1-499 isoform Q16881-5)
Procedure: Cellular TXNRD1 assay—20,000 or 10,000 A549 cells (for 4 h or 12 h and 24 h compound incubation respectively) were seeded in 96-well plates (microplates, 96 well, F-bottom, black, clear bottom, ViewPlateTM-96 F TC, PerkinElmer), in a total volume of 100 μL full DMEM (supplemented with 10% FBS and 100 nM Na2SeO3). […] The cells were subsequently incubated for the respective mentioned time, washed once with full DMEM and fresh, full DMEM, containing 75 μM RX1 and 0.75% DMSO, was added and the first fluorescent measurement was conducted immediately (timepoint = 0) using a Tecan Infinite M200 plate reader (ex/em 355/520). To follow the kinetic activation of RX1, a fluorescent measurement was done every hour for 6 h. Between measurements, cells were stored at 37 °C and 5% CO2. As a control, cells treated with compounds, but not with RX1, just the respective DMSO content, were used for background fluorescent. To determine how the cells were viable throughout the RX1 assay, the control cells were used for a viability measurement, using CellTiter-Glo® Luminescent Cell Viability Assay, after the final fluorescent measurement. For final data analysis, raw data was processed using Microsoft Excel and GraphPad Prism. In brief, the slope of the activated RX1 fluorescence increase was in each case calculated and normalized, using the viability measurement of the control cells.

GPX4 [8] = target: T3, GPX4 (Homo sapiens, UniProt P36969); test: GPX4 immunoblot of treated A549 cells; assay type: cell-based; conditions: A549, 3 μM, 24 h
T3 construct: We thus performed immunoblot analyses for GPX4 in A549 cells; endogenous in cells; host or cells: A549
T3 sequence (P36969 1-197): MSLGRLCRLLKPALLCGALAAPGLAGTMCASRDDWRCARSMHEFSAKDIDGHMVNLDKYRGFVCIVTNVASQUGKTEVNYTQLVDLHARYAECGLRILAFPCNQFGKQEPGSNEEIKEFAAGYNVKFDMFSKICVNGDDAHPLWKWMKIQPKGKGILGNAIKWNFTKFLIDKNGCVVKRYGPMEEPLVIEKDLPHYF
Procedure: Western blots—A549 and H1975 cells cultured for at least 72 h in the presence of 100 nM Na2SeO3 (Sigma) were seeded in 90 mm dishes (VWR) at 1 × 10^6 cells per dish for 18 h prior to main treatments. Four hours after seeding dishes, cells were pretreated with 2 μM Fer-1 for 14 h prior to adding RSL3, when indicated. After 14 h, main treatments with TRi-1, TRi-2, RSL3, ML162, ML210 or 0.03% v/v DMSO in doses indicated in each figure were added for 6 or 24 h. Total DMSO content was 0.05%. Cells were then scraped, washed in PBS, and suspended in 150–200 μL lysis buffer containing 50 mM Tris-HCl (pH 7.5), 2 mM EDTA, 0.15 M NaCl, 1% Triton X-100, and cOmplete protease inhibitor cocktail (Roche). Supernatants were collected after 30 s of sonication, and 30 min centrifugation at 17000×g, and protein concentration was measured using Pierce bicinchoninic acid (BCA) protein assay kit (Thermo Fischer Scientific). […] Chemiluminescent signal was detected using anti-rabbit and anti-mouse HRP-IgG secondary antibodies (Southern Biotech, 4030–05, LOT A2718-MM00 and 1030–05, LOT L3919-XE81B respectively) and ECL detection reagent (Cytiva Amersham). Protein quantification based on band densitometry was performed in Quantity One and Image Lab (BioRad).

A549 cells [9] = test: A549 viability in cellular TXNRD1 (RX1) experiments; conditions: A549, 4 h, Extended Data Fig. 3A
Procedure: Cellular TXNRD1 assay—20,000 or 10,000 A549 cells (for 4 h or 12 h and 24 h compound incubation respectively) were seeded in 96-well plates (microplates, 96 well, F-bottom, black, clear bottom, ViewPlateTM-96 F TC, PerkinElmer), in a total volume of 100 μL full DMEM (supplemented with 10% FBS and 100 nM Na2SeO3). The cells were incubated for 16 h at 37 °C and 5% CO2, followed by media change and addition of indicated compounds at respective concentrations (0.1 μM–20 μM), including 0.6% DMSO. The cells were subsequently incubated for the respective mentioned time, washed once with full DMEM and fresh, full DMEM, containing 75 μM RX1 and 0.75% DMSO, was added and the first fluorescent measurement was conducted immediately (timepoint = 0) using a Tecan Infinite M200 plate reader (ex/em 355/520). To follow the kinetic activation of RX1, a fluorescent measurement was done every hour for 6 h. Between measurements, cells were stored at 37 °C and 5% CO2. As a control, cells treated with compounds, but not with RX1, just the respective DMSO content, were used for background fluorescent. To determine how the cells were viable throughout the RX1 assay, the control cells were used for a viability measurement, using CellTiter-Glo® Luminescent Cell Viability Assay, after the final fluorescent measurement. For final data analysis, raw data was processed using Microsoft Excel and GraphPad Prism. In brief, the slope of the activated RX1 fluorescence increase was in each case calculated and normalized, using the viability measurement of the control cells.
Extended Data Figure 3: A549 cytotoxicity in cellular TXNRD1 experiments following final
A) Cell viability following 4-hour incubation with
compounds; B) Viability following 12-hour incubation with compounds; C) Viability
following 24 -hour incubation with compounds. The cell viability in was in each case measured
using the Cell Quanti-BlueTM Cell Viability Assay Kit and the data are presented as mean ±
s.d. of n = 3 biological replicates, each containing n = 3 technical replicates.

Question: With `COc1ccc([N+](=O)[O-])c(S(=O)(=O)c2ccc(Cl)cc2)n1` [TRi-1] as the molecule, how does the “Specificity among GPX1, GPX4, GR and TXNRD1” value (TXNRD1 [1]; pure enzyme systems, Fig. 1A lower panels) read?
Answer: The value was “specific inhibitors of TXNRD1”.

Question: What about the pIC50 (TXNRD1 [1]; recombinant TXNRD1, Fig. 1A assay conditions, read-out: IC50 TXNRD1 inhibition) of the same molecule?
Answer: Its pIC50 is ~6.30.

Question: What about the “Antitumoral effect in mice” value [2] of the same molecule?
Answer: Its value is “antitumoral properties”.

Question: What about the Toxicity to mice [2] of the same molecule?
Answer: Its Toxicity to mice is “lack overt toxicity”.

Question: And the “Thermal stabilization of TXNRD1” value (TXNRD1 [3])?
Answer: Its value is “displaying thermal stabilization of the enzyme”.

Question: And the “MDA and Ptgs2 levels” value [4]?
Answer: Its value is “increase MDA and Ptgs2 levels”.

Question: And the “Effect on GPX4 thermostability” value (GPX4 [5])?
Answer: The value was “no major effect”.

Question: What about the pIC50 (A549 cells [6]; 24 h, media not supplemented with selenium) of the same molecule?
Answer: The pIC50 was ~4.70.

Question: What about the “Effect of ferrostatin-1 or MitoTEMPO co-treatment on cytotoxicity” value (A549 cells [6]; A549, 24 h, no selenium supplementation) of the same molecule?
Answer: The value was “co-treatment with neither ferrostatin-1 nor MitoTEMPO had any effect”.

Question: And the Cell viability (A549 cells [6]; A549, 24 h, under all tested conditions (with/without Se, blockers))?
Answer: The Cell viability was “about 40%”.

Question: And the “Difference in response profiles between cell lines” value (A549 cells [6]; A549, H1975 and HT1080, 24 h)?
Answer: Its value is “no stark difference in response profiles”.

Question: What about the “Effect on cellular TXNRD1 activity (RX1) at 4 h” value (TXNRD1 [7]) of the same molecule?
Answer: The value was “effectively inhibit cellular TXNRD1 activity”.

Question: What about the “GPX4 expression levels compared to DMSO controls (immunoblot)” value (GPX4 [8]) of the same molecule?
Answer: Its value is “no obvious changes in its expression levels”.

Question: And the “Effect on cell viability at 4 h” value (A549 cells [9])?
Answer: Its value is “no overt effects on viability”.
